According to publication PMC4603696, “Discovery and characterization of novel small-molecule inhibitors targeting nicotinamide phosphoribosyltransferase” (Scientific Reports, 2015):
Several values for one entry are separate records, joined by “and”; a condition that tells them apart may be missing. Equal values may be shown once. Read-outs that look alike come from different tables or passages of the source.

What was measured:
NAMPT [1] = target: T1, NAMPT (Homo sapiens, UniProt P43490); assay: NAMPT activity assay by fluorescence of NMN derivative (HTS system), IC50 determination; format: biochemical; parameters: His-tag; made in house; host or cells: E. coli BL21-CodonPlus (DE3)-RIL; details: for IC50: recombinant human NAMPT, read-out: NAMPT IC50
T1 sequence (P43490 whole entry): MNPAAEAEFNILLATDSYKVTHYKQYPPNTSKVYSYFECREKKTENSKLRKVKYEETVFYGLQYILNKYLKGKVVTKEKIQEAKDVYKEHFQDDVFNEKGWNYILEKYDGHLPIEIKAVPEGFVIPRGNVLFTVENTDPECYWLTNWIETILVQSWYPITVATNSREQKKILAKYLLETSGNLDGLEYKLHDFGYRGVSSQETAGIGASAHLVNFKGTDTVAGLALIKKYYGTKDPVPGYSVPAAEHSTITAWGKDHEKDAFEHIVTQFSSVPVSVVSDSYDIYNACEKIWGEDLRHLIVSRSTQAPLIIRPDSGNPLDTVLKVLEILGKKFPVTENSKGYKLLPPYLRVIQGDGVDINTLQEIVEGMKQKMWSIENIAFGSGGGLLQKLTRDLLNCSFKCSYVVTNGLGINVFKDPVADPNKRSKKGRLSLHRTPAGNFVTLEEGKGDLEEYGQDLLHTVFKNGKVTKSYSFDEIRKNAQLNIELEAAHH

HCT116 cells = assay: SRB assay in HCT116; format: cell-based; details: Homo sapiens, HCT-116; HCT116, SRB, 10-fold concentration gradient; read-out: anti-proliferation IC50, initial screen
Description: (§1) Sulfor hod am ine B p rotei n st ai ning (SRB) assay
(§2) Cell pr oliferat ion was eva lua ted by sul for hod amine B pr ot ein st aini ng (SRB) assa y10-12.
(§3) Briefly, cel ls were se ede d int o 96-well pl ates, cul tur ed overni ght , and trea ted with correspond ing com poun ds for 72 h. Cells were the n fixe d with 10% trichl or oa cetic aci d and st ained with sul for hoda mine B (Sigm a). Sul for hoda mine B in the cells was di sso lved in 10 mmol/L Tris-HCl and was measured at 515 nm usi ng a multiw ell spect ropho tometer (VERSA max, Mol ecul ar Devi ces, Sunnyva le, CA). The inhi bi tion rat e on cell pr olif eratio n was cal culated for each well as (A515contr ol cells-A 515tr eated cells)/A515contr ol cells×100 % (A515:
(§4) OD va lue at 515 nm ). The averag e IC50 va lue s were de termine d by Logit method from at leas t t hr eei nde pe nde nt test s.

HepG2 cells [2] = assay: Sulforhodamine B protein staining (SRB) assay in HepG2; format: cell-based, human; details: Homo sapiens
Description: as §1, §2, §3, §4

A549 cells = assay: SRB assay in A549; format: cell-based, human; details: Homo sapiens; A549, SRB, 10-fold concentration gradient; read-out: anti-proliferation IC50, initial screen
Description: as §1, §2, §3, §4

Huh7-C cells = assay: CCK-8 assay in stem-like human hepatoma cell line Huh7-C; format: cell-based; details: Huh7-C, treated 60 h, read-out: CCK-8 assay in Huh7-C: IC50
Description: (§5) Cellc ount ing k it-8 (CCK-8) assa y
Cell vi ability was de termine d by ou r previ ous method9 usi ng the Cell Counting Kit-8 (CCK -8, […]
(§6) 10 μl CCK-8 sol ution was adde d to the cul ture medium and inc ub ated at 37 °C for 1 h. Th e absor banc e at 450 nm (A450) was de tected by a pl ate reade r. Each e xperi ment w as carr ied out i n t riplic ate i n thr ee r eplic ate w ells.

NAMPT [3] = target: T1, NAMPT; assay: Cellular thermal shift assay (CETSA / […]) in intact HepG2 cells; format: cell-based; parameters: endogenous in cells; host or cells: HepG2; details: 62 °C
HepG2 cells [4] = assay: Cell counting kit-8 (CCK-8) cell viability assay in HepG2; format: cell-based, human; details: HepG2, 48 hours treatment, read-out: CCK-8 assay in HepG2: IC50
Description: as §5
Cell vi ability was de termine d by ou r previ ous method9 usi ng the Cell Counting Kit-8 (CCK -8, Dojindo, Ja pa n). In hu man he pa tocellu lar carcinom a cell line HepG 2, cells were seede d in 96-well plate and starve d for ove r 12 h with se rum-free DMEM at 60~ 70% conf lue nc y, the n trea ted wit h com pounds or ve hicle for 24 h to 72 h accor ding to expe riment requi rement s. […]
as §6

NAMPT [5] = target: T1, NAMPT; assay: Cellular thermal shift assay (CETSA / […]) in HepG2 cell lysate; format: binding; parameters: endogenous in cells; host or cells: HepG2
[6] = HepG2, 72 h, HepG2, second test, 2-fold concentration gradient, 72 hours, read-out: SRB assay in HepG2: IC50
[7] = HepG2, HepG2, SRB, 10-fold concentration gradient, read-out: anti-proliferation IC50, initial screen

IC50 (NAMPT [1]; mean ± s.e.) | SMILES | further results
0.149 ± 0.021 µM | COc1ccc(CCNC(=O)c2cc3ccccc3s2)cc1OC [compound 2161] | –
0.0105 ± 0.002 µM | Cc1ccc(CN2CCN(S(=O)(=O)c3ccc(NC(=S)NCc4cccnc4)cc3)CC2)cc1 [MS26] | –
0.777 ± 0.084 µM | O=C(NCc1ccc(S(=O)(=O)NCc2cc(F)cc3c2OCOC3)s1)c1ccc(Cl)cc1 [compound 4162] | –
0.0089 ± 0.0005 µM | O=S(=O)(c1ccc(NC(=S)NCc2cccnc2)cc1)N1CCN(Cc2cccc(F)c2)CC1 [MS24] | –
0.0157 ± 0.0025 µM | O=S(=O)(c1ccc(NC(=S)NCc2cccnc2)cc1)N1CCN(Cc2ccccc2Cl)CC1 [MS30] | –
0.0487 ± 0.0045 µM | O=S(=O)(c1ccc(NC(=S)NCc2cccnc2)cc1)N1CCN(Cc2ccoc2)CC1 [MS40] | –
0.0191 ± 0.002 µM | O=S(=O)(c1ccc(NC(=S)NCc2cccnc2)cc1)N1CCN(Cc2ccco2)CC1 [MS42] | –
0.0242 ± 0.0016 µM | O=S(=O)(c1ccc(NC(=S)NCc2cccnc2)cc1)N1CCN(Cc2ccc(Br)cc2)CC1 [MS32] | IC50 (HCT116 cells): < 5000 nM; IC50 (HepG2 cells [2]; [6]): 4860 ± 150 nM; IC50 (HepG2 cells [2]; [7]): < 5000 nM; IC50 (A549 cells): < 5000 nM
0.0124 ± 0.0009 µM | Cc1ccccc1CN1CCN(S(=O)(=O)c2ccc(NC(=S)NCc3cccnc3)cc2)CC1 [MS27] | –
0.0168 ± 0.0015 µM | Cc1cccc(CN2CCN(S(=O)(=O)c3ccc(NC(=S)NCc4cccnc4)cc3)CC2)c1 [MS28] | IC50 (HCT116 cells): < 5000 nM; IC50 (HepG2 cells [2]; [6]): > 10000 nM; IC50 (HepG2 cells [2]; [7]): < 5000 nM; IC50 (A549 cells): < 5000 nM
0.855 ± 0.17 µM | Cc1ccc2oc(=O)n(CCC(N)=NOC(=O)c3ccccc3)c2c1 [compound 7391] | –
0.0197 ± 0.0021 µM | O=[N+]([O-])c1ccc(CN2CCN(S(=O)(=O)c3ccc(NC(=S)NCc4cccnc4)cc3)CC2)cc1 [MS37] | IC50 (HCT116 cells): < 5000 nM; IC50 (HepG2 cells [2]; [6]): 4650 ± 1030 nM; IC50 (HepG2 cells [2]; [7]): < 5000 nM; IC50 (A549 cells): < 5000 nM
0.0123 ± 0.002 µM | O=S(=O)(c1ccc(NC(=S)NCc2cccnc2)cc1)N1CCN(Cc2ccccc2F)CC1 [MS25] | –
0.0137 ± 0.0016 µM | O=S(=O)(c1ccc(NC(=S)NCc2cccnc2)cc1)N1CCN(Cc2ccc(Cl)cc2)CC1 [MS31] | IC50 (HCT116 cells): < 5000 nM; IC50 (HepG2 cells [2]; [6]): 5810 ± 710 nM; IC50 (HepG2 cells [2]; [7]): < 5000 nM; IC50 (A549 cells): < 5000 nM
0.0369 ± 0.0046 µM | O=S(=O)(c1ccc(NC(=S)NCc2cccnc2)cc1)N1CCN(Cc2ccc(OC(F)(F)F)cc2)CC1 [MS35] | IC50 (HCT116 cells): < 5000 nM; IC50 (HepG2 cells [2]; [6]): 4830 ± 130 nM; IC50 (HepG2 cells [2]; [7]): < 5000 nM; IC50 (A549 cells): < 5000 nM
0.0798 ± 0.0061 µM | CCCCc1ccc(CN2CCN(S(=O)(=O)c3ccc(NC(=S)NCc4cccnc4)cc3)CC2)cc1 [MS36] | –
0.0199 ± 0.0028 µM | Nc1ccc(CN2CCN(S(=O)(=O)c3ccc(NC(=S)NCc4cccnc4)cc3)CC2)cc1 [MS38] | –
0.0098 ± 0.0009 µM | O=S(=O)(c1ccc(NC(=S)NCc2cccnc2)cc1)N1CCN(Cc2cccnc2)CC1 [MS45] | –
0.0154 ± 0.0016 µM | Cc1ccc(N2CCN(S(=O)(=O)c3ccc(NC(=S)NCc4cccnc4)cc3)CC2)cc1 [MS46] | –
0.0137 ± 0.0004 µM | O=S(=O)(c1ccc(NC(=S)NCc2cccnc2)cc1)N1CCN(Cc2ccncc2)CC1 [MS44] | –
0.0126 ± 0.0017 µM | O=S(=O)(c1ccc(NC(=S)NCc2cccnc2)cc1)N1CCN(Cc2cccc(Cl)c2)CC1 [MS29] | –
0.0225 ± 0.0008 µM | O=S(=O)(c1ccc(NC(=S)NCc2cccnc2)cc1)N1CCN(Cc2ccsc2)CC1 [MS41] | –
0.352 ± 0.045 µM | COc1cccc(/C=C2/N=C(c3ccc(NC(=O)c4cccs4)cc3)OC2=O)c1OC [compound 6443] | –
0.0388 ± 0.0018 µM | O=S(=O)(c1ccc(NC(=S)NCc2cccnc2)cc1)N1CCN(Cc2cccs2)CC1 [MS43] | –
0.014 ± 0.0003 µM | O=S(=O)(c1ccc(NC(=S)NCc2cccnc2)cc1)N1CCN(Cc2nc3ccccc3[nH]2)CC1 [MS39] | –
0.504 ± 0.124 µM | O=C1C[C@H](c2ccc(O)cc2)Oc2c1c(O)cc(O)c2[C@@H]1C(=O)c2c(O)cc(O)cc2O[C@H]1c1ccc(O)cc1 [compound 3909] | –
0.0295 ± 0.0008 µM | O=S(=O)(c1ccc(NC(=S)NCc2cccnc2)cc1)N1CCN(Cc2ccc3ccccc3c2)CC1 [MS33] | IC50 (HCT116 cells): < 5000 nM; IC50 (HepG2 cells [2]; [6]): 8940 ± 450 nM; IC50 (HepG2 cells [2]; [7]): < 5000 nM; IC50 (A549 cells): < 5000 nM

Continued, compound first:

SMILES | IC50 (NAMPT [1]; mean ± s.e.) | further results
N#CN=C(NCc1cccnc1)Nc1ccc(S(=O)(=O)N2CCCC2)cc1 [MS21] | 0.577 ± 0.0387 µM | –
CCOC(=O)N=C(NCc1cccnc1)Nc1ccc(S(=O)(=O)N2CCCCC2)cc1 [MS12] | – | IC50 (NAMPT [1]; values given in μM): > 166 µM
O=S(=O)(c1ccc(NC(=S)NCc2cccnc2)cc1)N1CCN(C2CCCCC2)CC1 [MS8, 1-(4-((4-cyclohexylpiperazin-1-yl)sulfonyl)phenyl)-3-(pyridin-3-ylmethyl)thiourea] | 0.0142 ± 0.0024 µM | –
O=C(Nc1ccc(S(=O)(=O)N2CCCCC2)cc1)OCc1cccnc1 [MS17] | 0.0428 ± 0.004 µM | –
CC(=O)N1CCN(S(=O)(=O)c2ccc(NC(=S)NCc3cccnc3)cc2)CC1 [MS5, 1-(4-((4-acetylpiperazin-1-yl)sulfonyl)phenyl)-3-(pyridin-3-ylmethyl)thiourea] | 0.0405 ± 0.0018 µM | –
O=S(=O)(c1ccc(NC(=S)NCc2cccnc2)cc1)N1CCN(c2ccccn2)CC1 [MS6, 1-(4-((4-(pyridin-2-yl)piperazin-1-yl)sulfonyl)phenyl)-3-(pyridin-3-ylmethyl)thiourea] | 0.0177 ± 0.0034 µM | –
CCOC(=S)Nc1ccc(C(=O)N2CCCCC2)cc1 [MS20] | – | inhibition on NAMPT activity (in words) (NAMPT [1]): no NAMPT inhibition; IC50 (NAMPT [1]; values given in μM): > 150 µM
CN1CCN(S(=O)(=O)c2ccc(NC(=S)NCc3cccnc3)cc2)CC1 [MS4] | 0.0964 ± 0.0123 µM | –
N=C(NCc1cccnc1)Nc1ccc(S(=O)(=O)N2CCCCC2)cc1 [MS18] | 0.765 ± 0.0748 µM | –
O=S(=O)(c1ccc(NC(=S)NCc2cccnc2)cc1)N1CCN(Cc2c(F)cccc2F)CC1 [MS23] | 0.0099 ± 0.0012 µM | IC50 (HCT116 cells): < 5000 nM; IC50 (HepG2 cells [2]; [6]): > 10000 nM; IC50 (HepG2 cells [2]; [7]): < 5000 nM; IC50 (A549 cells): < 5000 nM
O=S(=O)(NCc1ccccc1)c1ccc(NC(=S)NCc2cccnc2)cc1 [MS10] | 0.0196 ± 0.0002 µM | –
O=C(/C=C/c1cccnc1)NCCCCC1CCN(C(=O)c2ccccc2)CC1 [FK866, reference compound] | – | IC50 (HepG2 cells [2]; [6]): 50 nM
O=C(c1ccc(NC(=S)NCc2cccnc2)cc1)N1CCCCC1 [MS15] | 0.0422 ± 0.0031 µM | –
O=S(=O)(c1ccc(NC(=S)NCc2cccnc2)cc1)N1CCCC1 [MS9, 1-(pyridin-3-ylmethyl)-3-(4-(pyrrolidin-1-ylsulfonyl)phenyl)thiourea] | 0.0439 ± 0.0024 µM | –
O=S(=O)(c1ccc(NC(=S)NCc2cccnc2)cc1)N1CCOCC1 [MS11] | 0.0217 ± 0.0008 µM | –
N=C(NCc1cccnc1)Nc1ccc(C(=O)N2CCCCC2)cc1 [MS19] | 14.5 ± 0.203 µM | IC50 (NAMPT [1]; values given in μM): 14.5 ± 0.2 µM
O=S(=O)(c1ccc(NC(=S)NCc2cccnc2)cc1)N1CCN(Cc2ccc(F)cc2)CC1 [MS22] | 0.012 ± 0.0015 µM | –
O=S(=O)(Nc1ccccc1)c1ccc(NC(=S)NCc2cccnc2)cc1 [MS3] | 0.022 ± 0.0046 µM | –
O=S(=O)(c1ccc(NC(=S)NCc2cccnc2)cc1)N1CCNCC1 [MS2] | 0.0845 ± 0.0075 µM | –
O=S(=O)(c1ccc(NC(=S)NCc2cccnc2)cc1)N1CCN(Cc2ccccc2)CC1 [MS7, 1-(4-((4-benzylpiperazin-1-yl)sulfonyl)phenyl)-3-(pyridin-3-ylmethyl)thiourea] | 0.00093 µM and 0.0009 µM | IC50 (Huh7-C cells): 1060 ± 248 nM; ITDRFCETSA of NAMPT in cell lysate versus intact cells (NAMPT [3]; lysate value relative to intact cells): no significant difference; ITDRFCETSA for NAMPT in intact cell, difference to MS1 (shifted to the right) (NAMPT [3]; intact cell): no less than 10 fold; IC50 (HepG2 cells [4]): 1270 nM; IC50 (HepG2 cells [4]; Homo sapiens, HepG2, 48 h): 1270 ± 158 nM; IC50 (HepG2 cells [2]; [6]): > 10000 nM; CETSA melting curve shift of NAMPT in cell lysate (NAMPT [5]; HepG2 cell lysate, 100 μM): large thermal shift; ITDRFCETSA for NAMPT in lysate, compared with MS1 (NAMPT [5]; cell lysate, 62 °C): shifted to the left
